In patent publication US8734775B2, “Chemokine derived peptides that bind with chemokine receptor CXCR3 and uses for chronic wound and angiogenesis inhibition treatments” (University of Pittsburgh, priority 2011, dated 2014):

How the values were obtained:
HMEC-1 cells = test: Tube formation after pre-treatment with CXCR3-neutralizing antibody; assay type: cell-based, human
Procedure: To determine if the IP-10dp peptide is acting through the same signaling pathways as IP-10, an experiment was conducted using a CXCR3-neutralizing antibody (also referred to herein as CXCR3 Ab) to assess that antibody's impact upon IP-10dp's ability to block tube formation. HMEC-1 cells were grown, detached and re-suspended in serum-free media and all were pretreated with CXCR3 Ab (0.5 μg/ml) 30 minutes prior to the addition of VEGF (75 ng/ml), IP-10 (300 ng/ml), IP-10dp (10 μM) and/or Immunoglobulin G (or “IgG,” as control). The thus-treated cells (1×10^4 cells/well) were added to 24-well culture plates coated with growth factor reduced Matrigel and incubated for 24 hours, and endothelial tubes were allowed to form as described above. Images were obtained as above. […]
Quantification of the endothelial tubes formed was performed as above, using MetaMorph, with the data being shown in the graphs of FIG. 6B are of N=6 and normalized to no treatment (average±SEM), and with *P<0.05.

[1] = system: cAMP production in HMEC-1 cells; test: cAMP enzyme immunoassay in endothelial cells; assay type: cell-based, human
Procedure: Thus, an experiment was conducted to determine if stimulation of endothelial cells with IP-10dp would induce an increase in cAMP. HMEC-1 cells were plated in 10 mm culture dishes and grown to confluency in complete growth media. The cells were then incubated in serum-reduced media (0.5% dialyzed FBS for HMEC-1 cells) for 24 hours at 37° C. The cells were then washed once with PBS and incubated in serum-free media. The cells were then stimulated with forskolin ([…]), VEGF (100 ng/ml), IP-10 (200 ng/ml), IP-10dp (10 μM) alone or in various combinations. The media was removed and ice cold 80% ethanol was added and the cells incubated on ice for 15 minutes. The extracts were evaluated and quantified for total cAMP production by using a cAMP enzyme immunoassay kit provided by Sigma-Aldrich Corp., of St. Louis, Mo., according to the manufacturer's protocol.

[2] = system: VEGF-induced new vessel formation; test: In vivo Matrigel plug assay, vessel development; set-up: species or system C57Bl/6 mice; settings: mice, day 10
Procedure: To determine whether IP-10dp is able to inhibit vessel growth, an in vivo Matrigel assay was used to establish that IP-10dp is able to inhibit angiogenesis. Vessel development and regression in vivo was determined generally according to the method previously described by Bodnar et al. (see Bodnar et al., 2006, supra). In brief, for vessel development GFR Matrigel supplemented with VEGF165 in the absence or presence of IP-10 or IP-10dp was injected into the groin area of the mice. Ten days post inoculation; the Matrigel plug was removed and stained with Masson Trichrome to visualize endothelial infiltration.
Specifically, Matrigel with VEGF was injected into the groin area near the dorsal midline of 12-month-old C57Bl/6 female mice. In addition to Matrigel plus VEGF, the mice were injected with saline (control), 10 μg of IP-10 or 100 μg of IP-10dp. Two injections were made in each mouse in separate dorsal areas, one control injection and the other with the designated experimental treatment. On day 10, the Matrigel plugs were removed and either paraffin embedded or flash frozen. They were prepared and examined histologically for new vessel development using Masson's trichrome staining. […] This particular result is taken as being indicative that IP-10dp has the ability to inhibit VEGF-induced new vessel formation.

[3] = system: VEGF-induced newly formed vessels; test: In vivo Matrigel plug assay, regression of newly formed vessels; set-up: species or system C57BL/6J mice; settings: mice; injected into plug at days 10 and 12, examined day 17; IP-10 10 μg, IP-10dp 100 μg
Procedure: Further, to verify that IP-10dp is able to cause regression of newly formed vessels in vivo, parallel experiments were conducted on similar mice whereby GFR Matrigel supplemented with VEGF (200 ng/ml) was first injected into both the left and right side groins of mice (establishing a control location and a test location). After 10 days, the left side Matrigel plug was removed (control, n=6) and stained as above for histological examination, with the left side samples being used to establish the extent of new vessel invasion at 10 days. The remaining right side Matrigel plug in the mice was injected with either IP-10 (10 μg) or IP-10dp (100 μg) at days 10 and 12. Day 17, the right side Matrigel plugs were removed and stained for examination as above. FIG. 8D through FIG. 8G are color photographs of tissue samples, showing both 10× and 40× magnifications, taken from laboratory C57BL/6J mice. […]

## PESKAIKNLLKAVSKEMSKRSP (IP-10dp; listed as Homo sapiens) [synthetic fragment of IP-10 comprising residues 78-98, the C-terminal α-helical domain]
HMEC-1 cells; CXCR3 Ab 0.5 μg/ml 30 minutes before, IP-10 300 ng/ml, IP-10dp 10 μM
  tube formation inhibition after CXCR3 Ab pre-treatment: significantly blocked
HMEC-1 cells; CXCR3 Ab 0.5 μg/ml, VEGF 75 ng/ml
  effect on VEGF-driven tube formation when CXCR3 receptor neutralized: unable to override the angiogenic signals from VEGF
[1]; IP-10dp 10 μM
  increase in cAMP production compared to control and VEGF treated cells: 2-3 fold
[1]; VEGF 100 ng/ml plus IP-10dp 10 μM
  cAMP production with VEGF plus IP-10dp compared to VEGF alone: significant increase in cAMP production
[2]; 10 μg IP-10 or 100 μg IP-10dp with Matrigel plus VEGF, Masson's trichrome
  inhibition of VEGF-induced angiogenesis in Matrigel plug: inhibited this angiogenesis
[2]; 100 μg IP-10dp vs 10 μg IP-10
  inhibition of VEGF-induced new vessel formation compared with IP-10: more effective than IP-10
[3]
  regression of vessels compared to saline control: significant regression of vessels
